According to PMC6199744, “Development of Chemical Proteomics for the Folateome and Analysis of the Kinetoplastid Folateome” (ACS Infectious Diseases, 2018):
Read-outs that look alike come from different tables or passages of the source.

Tests used:
Format in all cases: binding
[1] = target: T1, HeLa cell extract proteins (Homo sapiens, UniProt Q5SRE5)
T1 construct: endogenous in cells; host or cells: HeLa cell extract

[2] = target: T2, HeLa cell extract proteins (Homo sapiens, UniProt P53618)
T2 construct: endogenous in cells; host or cells: HeLa cell extract
T2 sequence (P53618 1-953): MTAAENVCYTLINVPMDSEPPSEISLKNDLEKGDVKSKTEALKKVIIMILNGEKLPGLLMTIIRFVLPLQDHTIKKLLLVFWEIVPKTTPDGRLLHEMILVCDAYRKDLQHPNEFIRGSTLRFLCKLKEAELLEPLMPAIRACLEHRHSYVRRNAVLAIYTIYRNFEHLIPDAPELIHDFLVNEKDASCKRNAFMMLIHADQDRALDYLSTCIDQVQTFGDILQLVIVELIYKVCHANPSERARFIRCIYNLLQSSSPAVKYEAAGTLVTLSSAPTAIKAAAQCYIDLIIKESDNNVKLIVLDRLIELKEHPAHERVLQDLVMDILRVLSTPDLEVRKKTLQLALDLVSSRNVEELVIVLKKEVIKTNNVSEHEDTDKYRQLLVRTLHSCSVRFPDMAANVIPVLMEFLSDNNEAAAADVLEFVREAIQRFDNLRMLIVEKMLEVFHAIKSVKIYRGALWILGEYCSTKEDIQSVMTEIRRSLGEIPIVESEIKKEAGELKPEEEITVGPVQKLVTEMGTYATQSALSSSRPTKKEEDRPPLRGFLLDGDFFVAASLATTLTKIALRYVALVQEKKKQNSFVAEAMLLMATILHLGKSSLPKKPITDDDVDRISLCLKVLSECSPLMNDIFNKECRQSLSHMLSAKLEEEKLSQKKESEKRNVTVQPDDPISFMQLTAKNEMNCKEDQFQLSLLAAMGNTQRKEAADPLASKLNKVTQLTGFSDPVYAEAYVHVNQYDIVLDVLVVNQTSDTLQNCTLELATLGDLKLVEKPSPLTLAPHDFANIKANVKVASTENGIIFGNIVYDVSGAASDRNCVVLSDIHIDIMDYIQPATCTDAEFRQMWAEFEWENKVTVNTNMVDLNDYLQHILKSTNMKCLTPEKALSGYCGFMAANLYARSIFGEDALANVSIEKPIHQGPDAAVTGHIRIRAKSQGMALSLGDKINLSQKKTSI

[3] = target: T3, HeLa cell extract proteins (Homo sapiens, UniProt Q99439)
T3 construct: endogenous in cells; host or cells: HeLa cell extract
T3 sequence (Q99439 1-309): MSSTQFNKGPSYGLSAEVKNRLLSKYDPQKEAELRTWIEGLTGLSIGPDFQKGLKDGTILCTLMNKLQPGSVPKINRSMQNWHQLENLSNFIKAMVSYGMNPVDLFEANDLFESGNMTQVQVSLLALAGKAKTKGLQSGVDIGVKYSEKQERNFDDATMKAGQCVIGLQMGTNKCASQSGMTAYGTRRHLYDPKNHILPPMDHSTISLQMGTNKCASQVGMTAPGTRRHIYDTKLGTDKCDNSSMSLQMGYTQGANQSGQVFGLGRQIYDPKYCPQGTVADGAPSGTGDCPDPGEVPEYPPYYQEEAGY

[4] = target: T4, HeLa cell extract proteins (Homo sapiens, UniProt Q92616)
T4 construct: endogenous in cells; host or cells: HeLa cell extract

[5] = target: T5, HeLa cell extract proteins (Homo sapiens, UniProt Q7RTS9)
T5 construct: endogenous in cells; host or cells: HeLa cell extract
T5 sequence (Q7RTS9 1-669): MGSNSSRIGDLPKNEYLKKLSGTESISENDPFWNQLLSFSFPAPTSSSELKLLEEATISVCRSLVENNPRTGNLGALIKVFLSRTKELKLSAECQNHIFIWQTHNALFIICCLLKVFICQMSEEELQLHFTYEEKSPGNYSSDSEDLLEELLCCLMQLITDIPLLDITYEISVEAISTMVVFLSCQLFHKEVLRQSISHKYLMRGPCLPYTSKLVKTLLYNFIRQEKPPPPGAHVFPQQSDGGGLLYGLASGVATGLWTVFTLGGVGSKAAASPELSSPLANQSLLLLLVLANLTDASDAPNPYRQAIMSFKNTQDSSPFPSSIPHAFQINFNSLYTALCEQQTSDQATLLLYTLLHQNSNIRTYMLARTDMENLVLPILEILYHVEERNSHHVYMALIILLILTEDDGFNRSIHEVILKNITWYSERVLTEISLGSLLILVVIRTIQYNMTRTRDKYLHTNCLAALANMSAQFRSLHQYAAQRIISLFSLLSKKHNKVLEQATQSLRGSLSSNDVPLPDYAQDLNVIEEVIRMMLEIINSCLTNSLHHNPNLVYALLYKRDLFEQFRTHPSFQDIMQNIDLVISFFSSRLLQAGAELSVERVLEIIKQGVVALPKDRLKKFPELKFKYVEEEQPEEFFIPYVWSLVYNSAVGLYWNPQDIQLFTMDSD

[6] = target: T6, HeLa cell extract proteins (Homo sapiens, UniProt Q14764)
T6 construct: endogenous in cells; host or cells: HeLa cell extract

[7] = target: T7, HeLa cell extract proteins (Homo sapiens, UniProt Q08380)
T7 construct: endogenous in cells; host or cells: HeLa cell extract
T7 sequence (Q08380 19-585): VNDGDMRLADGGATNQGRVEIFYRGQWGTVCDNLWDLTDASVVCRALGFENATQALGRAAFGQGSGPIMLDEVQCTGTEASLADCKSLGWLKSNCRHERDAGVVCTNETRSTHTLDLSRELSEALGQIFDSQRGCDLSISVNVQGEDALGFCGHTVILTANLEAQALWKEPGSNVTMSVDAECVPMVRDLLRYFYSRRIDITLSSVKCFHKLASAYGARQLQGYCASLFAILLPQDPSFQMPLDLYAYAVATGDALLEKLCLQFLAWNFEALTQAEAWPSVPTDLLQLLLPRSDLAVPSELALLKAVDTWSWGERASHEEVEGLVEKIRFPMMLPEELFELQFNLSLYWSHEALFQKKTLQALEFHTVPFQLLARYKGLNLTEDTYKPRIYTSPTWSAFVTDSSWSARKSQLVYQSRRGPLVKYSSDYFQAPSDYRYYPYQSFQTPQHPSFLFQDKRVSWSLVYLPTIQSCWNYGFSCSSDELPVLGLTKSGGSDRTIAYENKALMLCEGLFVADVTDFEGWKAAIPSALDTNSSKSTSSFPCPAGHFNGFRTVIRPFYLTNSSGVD

[8] = HeLa, protein LGALS3BP (GALECTIN-3-BINDING PROTEIN PRECURSOR)

T6 sequence (Q14764 whole entry): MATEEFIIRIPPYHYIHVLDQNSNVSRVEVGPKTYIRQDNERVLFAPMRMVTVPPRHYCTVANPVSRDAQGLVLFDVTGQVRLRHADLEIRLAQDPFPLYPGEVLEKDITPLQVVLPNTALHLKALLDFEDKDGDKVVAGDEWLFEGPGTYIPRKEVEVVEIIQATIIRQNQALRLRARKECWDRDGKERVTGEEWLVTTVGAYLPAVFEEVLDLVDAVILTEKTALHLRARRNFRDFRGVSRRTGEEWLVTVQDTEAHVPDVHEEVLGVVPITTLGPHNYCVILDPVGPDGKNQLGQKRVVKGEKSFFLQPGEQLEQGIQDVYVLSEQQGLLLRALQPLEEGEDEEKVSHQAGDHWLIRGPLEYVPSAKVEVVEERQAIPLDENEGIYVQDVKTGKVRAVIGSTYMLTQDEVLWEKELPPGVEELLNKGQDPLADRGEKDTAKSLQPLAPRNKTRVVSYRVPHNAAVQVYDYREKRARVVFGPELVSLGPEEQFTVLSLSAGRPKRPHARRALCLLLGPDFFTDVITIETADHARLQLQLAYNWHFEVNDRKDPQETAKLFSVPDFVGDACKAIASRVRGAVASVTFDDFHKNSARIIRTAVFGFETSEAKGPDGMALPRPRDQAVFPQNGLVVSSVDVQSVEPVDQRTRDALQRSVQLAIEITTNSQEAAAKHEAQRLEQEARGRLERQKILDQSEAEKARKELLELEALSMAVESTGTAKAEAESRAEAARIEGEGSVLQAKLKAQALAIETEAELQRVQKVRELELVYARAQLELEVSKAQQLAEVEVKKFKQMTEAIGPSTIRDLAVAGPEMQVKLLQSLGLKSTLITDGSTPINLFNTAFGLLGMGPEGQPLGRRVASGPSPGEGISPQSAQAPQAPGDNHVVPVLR
T4 sequence (Q92616 whole entry): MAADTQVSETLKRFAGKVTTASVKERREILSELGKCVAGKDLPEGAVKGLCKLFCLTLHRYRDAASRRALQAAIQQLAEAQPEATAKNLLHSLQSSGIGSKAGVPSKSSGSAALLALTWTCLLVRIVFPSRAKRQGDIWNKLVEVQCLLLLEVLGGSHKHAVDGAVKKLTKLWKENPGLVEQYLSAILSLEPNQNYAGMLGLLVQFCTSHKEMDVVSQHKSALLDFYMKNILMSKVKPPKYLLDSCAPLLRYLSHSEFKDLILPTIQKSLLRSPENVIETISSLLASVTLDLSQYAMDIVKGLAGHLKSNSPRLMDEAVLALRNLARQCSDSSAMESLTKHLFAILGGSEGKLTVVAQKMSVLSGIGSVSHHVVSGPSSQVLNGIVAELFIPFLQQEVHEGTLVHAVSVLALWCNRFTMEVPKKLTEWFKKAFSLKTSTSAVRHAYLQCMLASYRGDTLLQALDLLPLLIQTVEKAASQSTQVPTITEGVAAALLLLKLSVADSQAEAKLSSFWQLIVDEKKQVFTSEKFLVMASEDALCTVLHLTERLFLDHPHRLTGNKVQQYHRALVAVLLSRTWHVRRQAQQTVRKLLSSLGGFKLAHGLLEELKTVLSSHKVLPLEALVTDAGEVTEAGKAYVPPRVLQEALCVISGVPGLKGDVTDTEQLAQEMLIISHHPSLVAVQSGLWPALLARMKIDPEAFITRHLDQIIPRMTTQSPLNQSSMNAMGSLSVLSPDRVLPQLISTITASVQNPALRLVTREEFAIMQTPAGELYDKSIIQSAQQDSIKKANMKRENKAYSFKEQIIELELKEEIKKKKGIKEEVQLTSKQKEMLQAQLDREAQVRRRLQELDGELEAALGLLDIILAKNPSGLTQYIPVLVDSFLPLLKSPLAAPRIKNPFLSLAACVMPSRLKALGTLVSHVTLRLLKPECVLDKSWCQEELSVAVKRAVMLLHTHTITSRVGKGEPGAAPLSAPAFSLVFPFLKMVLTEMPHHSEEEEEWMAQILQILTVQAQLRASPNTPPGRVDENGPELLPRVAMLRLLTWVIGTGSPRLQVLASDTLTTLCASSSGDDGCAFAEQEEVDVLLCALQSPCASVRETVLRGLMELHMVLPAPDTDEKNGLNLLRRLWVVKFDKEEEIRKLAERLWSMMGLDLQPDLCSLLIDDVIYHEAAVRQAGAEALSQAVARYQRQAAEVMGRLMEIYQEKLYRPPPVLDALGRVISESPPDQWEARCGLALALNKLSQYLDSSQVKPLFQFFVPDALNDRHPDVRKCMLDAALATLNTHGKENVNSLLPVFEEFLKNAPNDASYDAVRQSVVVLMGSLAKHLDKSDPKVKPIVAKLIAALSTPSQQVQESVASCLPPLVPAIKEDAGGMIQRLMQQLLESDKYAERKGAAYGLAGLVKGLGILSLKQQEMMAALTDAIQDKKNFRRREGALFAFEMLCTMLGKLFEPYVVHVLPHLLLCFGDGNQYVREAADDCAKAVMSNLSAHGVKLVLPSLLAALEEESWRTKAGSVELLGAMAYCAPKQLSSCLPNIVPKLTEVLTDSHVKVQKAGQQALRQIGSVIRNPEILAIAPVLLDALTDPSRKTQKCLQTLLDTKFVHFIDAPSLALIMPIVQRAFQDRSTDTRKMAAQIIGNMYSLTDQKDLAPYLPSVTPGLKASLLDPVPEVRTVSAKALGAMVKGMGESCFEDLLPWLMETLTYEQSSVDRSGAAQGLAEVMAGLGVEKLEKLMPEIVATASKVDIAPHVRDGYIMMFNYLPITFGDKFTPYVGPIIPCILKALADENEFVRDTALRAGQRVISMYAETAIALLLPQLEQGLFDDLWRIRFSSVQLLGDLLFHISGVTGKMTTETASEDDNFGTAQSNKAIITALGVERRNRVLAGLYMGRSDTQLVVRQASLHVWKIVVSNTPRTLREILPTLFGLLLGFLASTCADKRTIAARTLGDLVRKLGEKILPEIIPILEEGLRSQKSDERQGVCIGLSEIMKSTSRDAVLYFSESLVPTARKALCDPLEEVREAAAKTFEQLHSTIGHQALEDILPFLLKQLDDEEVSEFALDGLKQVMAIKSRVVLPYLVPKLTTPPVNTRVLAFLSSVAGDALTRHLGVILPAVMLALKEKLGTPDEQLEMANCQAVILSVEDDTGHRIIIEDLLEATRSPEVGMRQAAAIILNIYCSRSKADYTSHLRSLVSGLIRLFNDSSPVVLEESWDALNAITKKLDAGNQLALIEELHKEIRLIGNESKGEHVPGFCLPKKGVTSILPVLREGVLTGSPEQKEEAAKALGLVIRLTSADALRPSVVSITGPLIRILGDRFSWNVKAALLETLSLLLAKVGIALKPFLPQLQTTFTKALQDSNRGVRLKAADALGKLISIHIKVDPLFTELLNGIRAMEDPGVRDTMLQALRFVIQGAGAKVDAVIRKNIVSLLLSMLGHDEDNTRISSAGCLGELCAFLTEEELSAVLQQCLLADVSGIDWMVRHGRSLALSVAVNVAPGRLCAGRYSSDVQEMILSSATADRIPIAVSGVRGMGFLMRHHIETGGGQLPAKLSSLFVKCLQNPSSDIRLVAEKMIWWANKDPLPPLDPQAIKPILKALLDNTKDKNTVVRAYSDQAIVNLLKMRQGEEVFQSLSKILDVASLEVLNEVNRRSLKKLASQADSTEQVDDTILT

SMILES	fold changes relative to vehicle control ([1]; HeLa, captured protein NUP188)	fold changes relative to vehicle control ([2]; HeLa, protein COPB1)	fold changes relative to vehicle control ([3]; HeLa, captured protein CNN2)	fold changes relative to vehicle control ([4]; HeLa, captured protein GCN1L1)	fold changes relative to vehicle control ([5]; HeLa, protein DYM)	fold changes relative to vehicle control ([6]; HeLa, protein MVP)	fold changes relative to vehicle control [7, 8]	fold changes relative to vehicle control [1]	fold changes relative to vehicle control [2]	fold changes relative to vehicle control [3]	fold changes relative to vehicle control [4]	fold changes relative to vehicle control [5]	fold changes relative to vehicle control [6]	fold changes relative to vehicle control [7]	fold changes relative to vehicle control ([1]; HeLa, protein NUP188)	fold changes relative to vehicle control ([3]; HeLa, protein CNN2)	fold changes relative to vehicle control ([4]; HeLa, protein GCN1L1)	fold changes relative to vehicle control ([7]; protein LGALS3BP, HeLa)
Nc1nc2c(c(=O)[nH]1)N(C=O)C(CNc1ccc(C(=O)N[C@@H](CCC(=O)O)C(=O)O)cc1)CN2 (stereo partly shown) [LEU, leucovorin]	1.13	0.87	0.97	1.04	0.78	0.99	1.08	–	–	–	–	–	–	–	–	–	–	–
Nc1nc2[nH]cc(CCc3ccc(C(=O)N[C@@H](CCC(=O)O)C(=O)O)cc3)c2c(=O)[nH]1 [PTX, pemetrexed]	–	–	–	–	–	–	–	1.17	0.84	0.96	1.02	0.68	0.98	1.13	–	–	–	–
CCCCCCOc1ccc(Cc2cnc(N)nc2N)cc1 [compound 1]	–	0.97	–	–	0.89	1.06	–	–	–	–	–	–	–	–	1.07	0.81	1.07	0.97
CCCCCCOc1cccc(Cc2cnc(N)nc2N)c1 [compound 2]	–	1.07	–	–	1.27	1.23	–	–	–	–	–	–	–	–	1.08	0.95	1.14	0.95
Nc1nc2cccc(-c3ccccc3)c2n1Cc1ccc(Cl)c(Cl)c1 [compound 3]	–	1.17	–	–	0.88	1.02	–	–	–	–	–	–	–	–	1.07	1.07	1.16	1.07
NCCOCCOCC(=O)Nc1nc2ncc(CNc3ccc(C(=O)NC(CCC(=O)O)C(=O)O)cc3)nc2c(=O)[nH]1 (stereo not shown) [compound 6]	1.17	0.92	0.93	1.15	0.86	0.96	1.02	–	–	–	–	–	–	–	–	–	–	–
NCCCNc1ccc(C(=O)NC(CCC(=O)O)C(=O)O)cc1 (stereo not shown) [compound 7]	1.07	0.97	1.33	1.15	0.94	1.28	1.09	–	–	–	–	–	–	–	–	–	–	–
